Experimental data from PMC7822874, “Chemoprotective antimalarials identified through quantitative high-throughput screening of Plasmodium blood and liver stage parasites” (Scientific Reports, 2021).
Like-named read-outs stand apart in the source and are kept apart here.

What was measured:
[1] = system: P. berghei-ANKA-GFP-LucCON liver stage parasites in HepG2-A16-CD81EGFP cells; test: P. berghei liver stage Pb-Luc assay, Method 1 (UCSD, 1536-well); assay type: cell-based, Plasmodium berghei; conditions: Plasmodium berghei, 48 h, average of 2 wells, 1536-well plate; for activity at 1 µM: nominal 1 uM (10 mM stock), […] for 15 mM, 1.2 uM for 12 mM, 2 uM for 20 mM stock; for activity at 3 µM: nominal 3 uM (10 mM stock), 4.5 uM for 15 mM, 3.6 uM for 12 mM, 6 uM for 20 mM stock; on all read-outs here: reference of the scale not given here
[2] = system: Plasmodium falciparum Dd2 asexual blood stage parasites; test: microbe, parasite or virus in culture; set-up: species or system Plasmodium falciparum Dd2 in human erythrocytes; single determination (one 11-point concentration-response curve); conditions: Plasmodium falciparum, DD2, Erythrocyte, 72 h; read-out: AC50
in vitro = conditions: human, HepG2-A16-CD81EGFP cells, uninfected
HepG2-A16-CD81EGFP cells = conditions: average of 2 wells, repeat 2; for HepG2 viability signal, 1 uM, repeat 2: nominal 1 uM (10 mM stock), […] for 15 mM, 1.2 uM for 12 mM, 2 uM for 20 mM stock; for HepG2 viability signal, 3 uM, repeat 2: nominal 3 uM (10 mM stock), 4.5 uM for 15 mM, 3.6 uM for 12 mM, 6 uM for 20 mM stock
[3] = repeat 1, read-out: Pb-Luc signal, 1 uM, repeat 1
[4] = repeat 2, read-out: Pb-Luc signal, 1 uM, repeat 2
[5] = repeat 3, read-out: Pb-Luc signal, 1 uM, repeat 3
[6] = repeat 1, read-out: Pb-Luc signal, 3 uM, repeat 1
[7] = repeat 2, read-out: Pb-Luc signal, 3 uM, repeat 2
[8] = repeat 3, read-out: Pb-Luc signal, 3 uM, repeat 3

Structure (SMILES)	activity at 1 µM [1, 3]	activity at 1 µM [1, 4]	activity at 1 µM [1, 5]	activity at 3 µM [1, 6]	activity at 3 µM [1, 7]	activity at 3 µM [1, 8]	AC50 [2]	viability at 48 h, 1 µM (in vitro)	viability at 48 h, 3 µM (in vitro)	HepG2 viability signal, 1 uM, repeat 2 (HepG2-A16-CD81EGFP cells)	HepG2 viability signal, 3 uM, repeat 2 (HepG2-A16-CD81EGFP cells)
CCOC(=O)c1ccc2c(c1)[C@@H]1C=CC[C@@H]1[C@H](c1cccc(OC)c1OC)N2 [NCGC00100279-01]	74.5%	94.6%	122%	60.1%	74.5%	64.8%	2660 nM	97.9%	105%	100.32%	102.96%
CC1CCCN(Cc2c(O)ccc3c(=O)c(-c4ccccc4Cl)c(C(F)(F)F)oc23)C1 (stereo not shown) [NCGC00100585-01]	99.2%	115%	106%	62.6%	101%	122%	841 nM	108%	112%	105.16%	104.39%
CC(C)c1ccccc1Oc1c(C(F)(F)F)oc2c(CN3CCN(C)CC3)c(O)ccc2c1=O [NCGC00100597-01]	104%	108%	80.4%	67.9%	95.1%	69.5%	668 nM	101%	102%	96.39%	99.40%
CCN1CCN(Cc2c(O)ccc3c(=O)c(Oc4ccccc4C(C)C)c(C(F)(F)F)oc23)CC1 [NCGC00100599-01]	78.6%	113%	135%	70%	89.4%	121%	596 nM	97.5%	99.2%	96.13%	100.51%
CCCOC(=O)c1c(NC(=O)C(C)Sc2nc(-c3ccccc3)cc(C(F)(F)F)n2)sc(C(=O)N(C)C)c1C (stereo not shown) [NCGC00101274-01]	94.7%	104%	101%	61.7%	98.3%	113%	1680 nM	98.8%	100%	104.19%	103.13%
CCN1CCN(Cc2c(O)ccc3c(=O)c(Oc4ccccc4Cl)c(C(F)(F)F)oc23)CC1 [NCGC00101484-01]	88.6%	66%	90.1%	93.5%	101%	77.7%	596 nM	99.8%	94.1%	99.03%	97.39%
CCc1ccc(Oc2c(C(F)(F)F)oc3c(CN4CCN(CC)CC4)c(O)ccc3c2=O)cc1 [NCGC00101506-01]	82.1%	87.1%	67%	64.2%	90%	40.1%	376 nM	92.4%	95.7%	92.46%	94.20%
CCOC(=O)c1ccc(NC2=CC(c3ccc(O)c(OCC)c3)N(c3ccc(C(=O)OCC)cc3)C2=O)cc1 (stereo not shown) [NCGC00102600-01]	107%	140%	101%	117%	126%	113%	3350 nM	98.6%	101%	100.94%	102.23%
Cc1ccc(C)c(Cn2c(=O)n(CCCCC(=O)NCc3ccc4c(c3)OCO4)c(=O)c3ccccc32)c1 [NCGC00106276-01]	69%	120%	109%	132%	95.7%	87.2%	6680 nM	99.1%	93.3%	102.61%	103.78%
CN1CCN(C(=O)c2ccc3c(c2)N(Cc2ccc(C(F)(F)F)cc2)C(=O)c2ccccc2S3)CC1 [NCGC00108242-01]	104%	123%	103%	91%	99.2%	92.4%	531 nM	99.8%	101%	102.88%	103.88%
CCN1CCN(C(=O)c2ccc3c(c2)N(Cc2ccc(Cl)cc2)C(=O)c2ccccc2[S+]3[O-])CC1 (stereo not shown) [NCGC00109464-01]	104%	92.1%	102%	83.2%	80.5%	103%	668 nM	110%	108%	105.55%	102.35%
CCN1CCN(C(=O)c2ccc3c(c2)N(Cc2ccccc2F)C(=O)c2ccccc2[S+]3[O-])CC1 (stereo not shown) [NCGC00109528-01]	102%	105%	110%	94.3%	116%	97.6%	841 nM	101%	98.8%	95.20%	97.54%
Cc1ccc2oc(=O)c3cnn(CC(=O)Nc4cccc(C(F)(F)F)c4)c3c2c1 [NCGC00110933-01]	106%	124%	113%	86.9%	117%	100%	2660 nM	94%	94.8%	99.44%	101.21%
COc1ccccc1NC(=O)Cn1cccc1-c1nc(-c2ccc(F)cc2)no1 [NCGC00445349-01]	128%	112%	138%	108%	129%	93.3%		107%	107%	104.40%	104.77%
COc1ccc(-c2noc(-c3cccn3CC(=O)Nc3ccc(C)cc3Cl)n2)cc1F [NCGC00445494-01]	118%	111%	98.1%	77.8%	91.7%	106%		99.5%	104%	100.81%	103.68%
COc1ccc(-c2noc(-c3cccn3CC(=O)Nc3cccc(Cl)c3C)n2)cc1F [NCGC00445510-01]	103%	114%	132%	102%	91.7%	124%		104%	105%	99.09%	100.27%
CN1c2cc(C(=O)Nc3ccc(C(F)(F)F)cc3)ccc2C(=O)N2CCCCC21 (stereo not shown) [NCGC00452394-01]	89.2%	103%	126%	97.6%	85.9%	102%		104%	110%	105.25%	108.50%
Cc1ccccc1CC(=O)NCc1nnc2cc(-c3nc(C4CC4)no3)ccn12 [NCGC00457761-01]	130%	129%	103%	86.9%	122%	133%		109%	107%	102.90%	101.49%
